In test [1] the test system is olfactory epithelium of freshwater adapted juvenile Atlantic salmon. Briefly: Extracellular electrical potentials (EEG) from olfactory nerve. The format is in vivo. As to conditions: for effect on olfactory epithelium response to mammalian finger rinse: 5 mM Ca2+ or 50 micromolar Gd3+; for effect on olfactory nerve response to 500 micromolar L-alanine: 5 mM Ca2+, 50 micromolar Gd3+ or 250 mM NaCl; for olfactory nerve response to stimulus: 500 micromolar L-alanine, 1 mM Ca2+, 250 mM NaCl, 50 micromolar Gd3+. The source says: Physiol. A 127:157–166 (1975), and Hubbard, P C, et al., Olfactory sensitivity to changes in environmental Ca2+ in the marine teleost Sparus Aurata, J. Exp. Biol. 203:3821–3829 (2000). After anaesthetizing the fish, it was placed in V-clamp apparatus where its gills were irrigated continuously with aerated seawater and its nasal lamellae bathed continuously by a stream of distilled water via a tube held in position in the inhalant olfactory opening. The olfactory nerves of the fish were exposed by removal of overlying bony structures. Stimuli were delivered as boluses to the olfactory epithelium via a 3 way valve where 1 cc of water containing the stimulus was rapidly injected into the tube containing a continuously stream of distilled water. […] Using this experimental approach, stable and reproducible recordings could be obtained for up to 6 hr after the initial surgery on the fish.

Test [2] addresses T1, HuPCaR (Homo sapiens, UniProt P41180, R227L).
T1 sequence (P41180 20-1078 R227L): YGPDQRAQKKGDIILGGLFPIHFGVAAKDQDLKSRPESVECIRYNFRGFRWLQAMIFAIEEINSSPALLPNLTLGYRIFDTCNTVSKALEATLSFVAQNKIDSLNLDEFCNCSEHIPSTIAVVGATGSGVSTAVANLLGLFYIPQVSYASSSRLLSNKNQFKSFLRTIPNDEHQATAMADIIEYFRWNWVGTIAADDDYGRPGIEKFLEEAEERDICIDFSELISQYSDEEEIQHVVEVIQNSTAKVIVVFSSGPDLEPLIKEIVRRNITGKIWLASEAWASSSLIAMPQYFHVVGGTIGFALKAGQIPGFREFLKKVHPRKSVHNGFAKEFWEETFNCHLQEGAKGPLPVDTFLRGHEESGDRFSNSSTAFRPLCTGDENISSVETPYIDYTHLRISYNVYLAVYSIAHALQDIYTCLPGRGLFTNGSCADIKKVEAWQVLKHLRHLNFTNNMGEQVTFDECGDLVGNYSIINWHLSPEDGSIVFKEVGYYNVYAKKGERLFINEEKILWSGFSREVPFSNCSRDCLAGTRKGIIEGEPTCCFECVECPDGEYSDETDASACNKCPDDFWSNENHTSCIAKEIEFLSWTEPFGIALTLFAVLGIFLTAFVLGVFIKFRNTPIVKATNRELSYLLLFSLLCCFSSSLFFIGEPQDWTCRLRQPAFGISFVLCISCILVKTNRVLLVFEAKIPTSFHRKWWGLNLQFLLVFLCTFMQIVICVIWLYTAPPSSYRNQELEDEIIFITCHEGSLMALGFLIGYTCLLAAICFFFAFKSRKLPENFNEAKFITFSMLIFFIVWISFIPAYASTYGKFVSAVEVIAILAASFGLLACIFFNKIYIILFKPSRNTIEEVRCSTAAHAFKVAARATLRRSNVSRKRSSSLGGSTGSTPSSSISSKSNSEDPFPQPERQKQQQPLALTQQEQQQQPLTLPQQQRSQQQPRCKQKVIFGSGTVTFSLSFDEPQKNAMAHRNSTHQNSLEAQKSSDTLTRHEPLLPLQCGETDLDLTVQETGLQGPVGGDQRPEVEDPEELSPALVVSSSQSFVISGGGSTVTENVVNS
To be noted: HuPCaR AA #227 altered to Leu; read-out: EC50 Ca2+; cited from earlier work.

Test [3] addresses T2, HuPCaR (Homo sapiens, UniProt P41180).
T2 sequence (P41180 20-1078): T1 sequence (P41180 20-1078 R227L) with L208R
To be noted: HuPCaR with Arg at AA #227; read-out: EC50 Ca2+; cited from earlier work.

Another test deals with SKCaR. Briefly: FURA 2 based assay of SKCaR activation in transfected HEK cells. Type of test: cell-based, dogfish shark (Squalus acanthias). As to conditions: for effect of amino acids on SKCaR's response to Ca2+: 10 mM Phe, 10 mM Ile or AA Mixture, FURA-2; for alteration in SKCaR sensitivity to Ca2+: increasing extracellular NaCl, sucrose as osmolality control. The source says: SKCaR cDNA was ligated into the mammalian expression vector PCDNA II and transfected into HEK cells using standard techniques. The presence of SKCaR protein in transfected cells was verified by western blotting. Activation of SKCaR by extracellular Ca2+, Mg2+ or NaCl was quantified using a well characterized FURA 2 based assay where increases in intracellular Ca2+ produced by SKCaR activation are detected using methodology published previously by Bai, M., S. Quinn, S. Trvedi, O. Kifor, S. H. S. Pearce, M. R. Pollack, K. Krapcho, S. C. Hebert and E. M. Brown. Expression and characterization of inactivating and activating mutations in the human Ca2+-sensing receptor. J. Biol. Chem., 32:19537–19545 (1996); and expressed as % normalized intracellular calcium response to receptor activation.
Full length recombinant dogfish (Squalas acanthias) shark kidney calcium receptor (SKCaR) was expressed in human embryonic kidney cells using methods described herein. The ability of SKCaR to respond to individual amino acids as well as various mixtures was quantified using FURA-2 ratio imaging fluorescence.
Baseline extracellular Ca^2+ concentration was 0.5 mM. Aliquots of Ca^2+ were added to produce final extracellular concentrations of 2.5 mM, 5 mM, 7.5 mM, 10 mM and 20 mM Ca^2+ with changes in the fluorescence recorded. Note that increases in cell fluorescence were greater in the presence of 10 mM Phe for extracellular Ca^2+ concentrations less than 10 mM.

Setting [4] is: normalized to response to 10 mM Ca2+.

The source of these data is patent US7101988B2, “Polyvalent cation-sensing receptor in Atlantic salmon” (MariCal, Inc., priority 2000, dated 2006).

Molecules are shown by their SMILES. Numbering of substitutions follows the chain as printed. Like-named read-outs stand apart in the source and are kept apart here. Some results are limits rather than exact numbers.

Turning to `[Ca+2]` [Ca2+, calcium], in test [1], the “effect on olfactory epithelium response to mammalian finger rinse” value is “reversibly ablated the response”. In test [1], the “effect on olfactory nerve response to 500 micromolar L-alanine” value (“effect on olfactory nerve response” below) is given as “complete loss of the corresponding response”. For the same compound, in test [1], the “olfactory nerve response to stimulus” value was “produce responses in EEG activity”. The EC50 is 0.001 to 0.01 mM in test [1] (normalized to response to 10 mM Ca2+, read-out: half maximal excitatory response (EC50)); 9.3 mM on HuPCaR [2]; 4 mM on HuPCaR [3]; 1 to 15 mM in the test with SKCaR (depending on the extracellular concentration of NaCl, read-out: half maximal activation of SKCaR by extracellular Ca2+); less than 5 mM in the test on SKCaR (extracellular NaCl 50 mM, read-out: EC50 for Ca2+); approximately 18 mM with SKCaR (extracellular NaCl 550 mM, read-out: EC50 for Ca2+). Besides, the “effect of added Ca2+ on sensitivity of SKCaR to Mg2+” value with SKCaR (3 mM Ca2+ added, as a function of extracellular NaCl) is on record as “increases the sensitivity of SKCaR to Mg2+”.

For the compound `[Gd+3]` [Gd^3+, gadolinium], in test [1], the “effect on olfactory epithelium response to mammalian finger rinse” value was “reversibly ablated the response”, the “effect on olfactory nerve response” value is “complete loss of the corresponding response” and the “olfactory nerve response to stimulus” value was “obtained a response”. Moreover, in test [1] (setting [4]), the “concentration at which olfactory epithelium responses occur” value lay in the range of 1 to 10 µM.

Consider `CC[C@H](C)[C@H](N)C(=O)O` [Ile, L-Isoleucine], for which the “effect of amino acids on SKCaR's response to Ca2+” value in the test with SKCaR was “increase SKCaR's response to a given Ca^2+ concentration”.

As to `C[C@H](N)C(=O)O` [L-alanine], the “duration of olfactory nerve response” value in test [1] (500 micromolar) was “approximately 2 seconds”. For the same compound, the “olfactory nerve response to stimulus” value in test [1] is “large increases in both the firing frequency and amplitude in the olfactory nerve”.

As to `[Mg+2]` [Mg2+, magnesium], the “concentration at which olfactory epithelium responses occur” value in test [1] (setting [4]) fell in the range of 10 to 100 µM. Moreover, the “range of extracellular Mg2+ in which SKCaR is activated” value in the test on SKCaR lay within 5 to 40 mM. Further, the EC50 with SKCaR (extracellular NaCl 50 mM, read-out: EC50 for Mg2+) is less than 20 mM; in the test with SKCaR (extracellular NaCl 550 mM, read-out: EC50 for Mg2+), approximately 80 mM.

As to `[Cl-].[Na+]` [NaCl, sodium chloride], in test [1], the “effect on olfactory nerve response” value was “resulted initially in a similar response” and the “olfactory nerve response to stimulus” value is listed as “produce responses in EEG activity”. Besides, the “concentration until which olfactory epithelium is unresponsive” value in test [1] (in vivo) was 250 millimolar. Also, in the test with SKCaR, the “alteration in SKCaR sensitivity to Ca2+” value is “reduce the sensitivity of SKCaR to Ca2+”.

As for `N[C@@H](Cc1ccccc1)C(=O)O` [Phe, L-Phenylalanine], the “effect of amino acids on SKCaR's response to Ca2+” value in the test on SKCaR is given as “increase SKCaR's response to a given Ca^2+ concentration”. In addition, the “increases in cell fluorescence” value in the test with SKCaR (10 mM, extracellular Ca2+ less than 10 mM) was “greater”.

For the compound `OC[C@H]1O[C@@](CO)(O[C@H]2O[C@H](CO)[C@@H](O)[C@H](O)[C@H]2O)[C@@H](O)[C@@H]1O` [sucrose], the “alteration in SKCaR sensitivity to Ca2+” value in the test with SKCaR is recorded as “not observed”.
